Results: PMC10256634, “Comparative in vivo toxicokinetics of silver powder, nanosilver and soluble silver compounds after oral administration to rats” (Archives of Toxicology, 2023)

How the values were obtained:
[1] = Absolute bioavailability (F value) from single-dose oral and i.v. blood AUC; format: in vivo, Sprague–Dawley rats; conditions: single-dose oral vs i.v. AUC; data not shown
Description: All in vivo and analytical experimental segments were performed in accordance with Good Laboratory Practice standards (OECD [1998]) and the adopted TK experimental design conformed to approaches set out in OECD TG 417 ([2010]). Comparative TK data for the various test items were obtained after single doses, and repeated dose administration for 28 days. This was based on measurement of Ag levels in whole blood at various timepoints, and also total Ag content in tissues (in the repeated dose study phase). This approach facilitated a direct quantitative comparison of parameters such as bioavailability, achieved systemic exposure and the delivered Ag dose to tissues after administration of the different Ag test items. Determination of single-dose p.o. and i.v. blood-level profiles was intended to provide information on absolute bioavailability (F value). Parallel vehicle control groups were included within each phase.
Animals (4 per sex/per treatment level) received test item via i.v. injection or oral gavage administration. Intravenous injection (bolus) was via the tail vein. Oral gavage administration was performed using a suitable graduated syringe and a rubber catheter. Dosing volumes for i.v. and oral administration were calculated based on the individual animal bodyweights.

[2] = Toxicokinetics after 28 days repeated oral gavage dosing, total Ag in whole blood (ICP-MS); conditions: for AUC0-t / DN AUC0-t: 0 to 96 h post-dose
[3] = Toxicokinetics after single oral gavage dose, total Ag in whole blood (ICP-MS)
[4] = Behaviour, homogeneity and stability of dosing formulations; format: physicochemical; conditions: oral: 1% MC (AgMP, AgNP) or purified water (AgAc, AgNO3); i.v.: 5% glucose or purified water
Description: Further details are provided under Supplementary information.
Polypropylene vessels and containers were used throughout preparation and storage to limit artefactual loss of Ag from adsorption onto surfaces (Sekine et al. [2015]). Vessels were pre-cleaned with a dilute nitric acid solution and then rinsed thoroughly with ultrapure water to remove contaminants. Chloride- or phosphate-containing vehicles and reagents were avoided to prevent Ag precipitation. Dosing formulations were prepared once for the single-dose administrations, and weekly for the repeated dose phase (divided into daily aliquots). […]
An extensive analytical pre-testing program was performed to fully characterize the test items and develop protocols to optimise the homogeneity and stability of dosing formulations. […] The Ag^+ fraction in the silver powder (AgMP) dosing formulations was determined to be a maximum of 0.004%. […]
To assure their accurate concentration, uniform homogeneity and physical stability, dosing formulation concentrations were analytically verified after preparation but before first administration using inductively coupled plasma mass spectrometry (ICP-MS) for determination of total Ag content. […] Samples of each formulation prepared for i.v. and single oral administration, as well as for Weeks 1 and 4 of the repeated dosing segment were analysed. […]

[5] = 28 d oral 5 mg/kg bw/d [Ag equivalent 3.25 AgAc, 3.2 AgNO3], female
[6] = 28 d oral 5 mg/kg bw/d [Ag equivalent 3.25 AgAc, 3.2 AgNO3], male
[7] = 28 d oral 175 [114 Ag] mg/kg bw/d, female
[8] = 28 d oral 175 [114 Ag] mg/kg bw/d, male
[9] = single oral dose 5 mg/kg bw [Ag equivalent 3.25 AgAc, 3.2 AgNO3], female
[10] = single oral dose 5 mg/kg bw [Ag equivalent 3.25 AgAc, 3.2 AgNO3], male
[11] = single oral dose 175 [114 Ag] mg/kg bw, female
[12] = single oral dose 175 [114 Ag] mg/kg bw, male
[13] = 28 d oral 125 [80 Ag] mg/kg bw/d, female
[14] = 28 d oral 125 [80 Ag] mg/kg bw/d, male
[15] = single oral dose 125 [80 Ag] mg/kg bw, female
[16] = single oral dose 125 [80 Ag] mg/kg bw, male

**Q.** For `CC(=O)[O-].[Ag+]` [AgAc, Silver(I) acetate], which “absolute bioavailability (F value)” value [1] is on record?
**A.** ≤ 5%

**Q.** And the AUC0-t [2, 5]?
**A.** 10,200 ng.h/mL

**Q.** What about the “DN AUC0-t” value [2, 5] of the same molecule?
**A.** 2960 (ng.h/mL)/(mg/kg bw/d)

**Q.** What about the AUC0-t [2, 6] of the same molecule?
**A.** 6220 ng·h/mL

**Q.** What about the “DN AUC0-t” value [2, 6] of the same molecule?
**A.** 1770 (ng.h/mL)/(mg/kg bw/d)

**Q.** And the Cmax [2, 5]?
**A.** 216 ng/mL

**Q.** What about the Tmax [2, 5] of the same molecule?
**A.** 3 h

**Q.** And the t1/2 [2, 5]?
**A.** 41.3 h

**Q.** And the Cmax [2, 6]?
**A.** 153 ng/mL

**Q.** And the Tmax [2, 6]?
**A.** 7.5 h

**Q.** What about the t1/2 [2, 6] of the same molecule?
**A.** 32.1 h

**Q.** And the AUC0-t [2, 7]?
**A.** 51,000 ng.h/mL

**Q.** And the “DN AUC0-t” value [2, 7]?
**A.** 400 (ng.h/mL)/(mg/kg bw/d)

**Q.** And the AUC0-t [2, 8]?
**A.** 43,000 ng.h/mL

**Q.** And the “DN AUC0-t” value [2, 8]?
**A.** 342 (ng.h/mL)/(mg/kg bw/d)

**Q.** And the Cmax [2, 7]?
**A.** 930 ng/mL

**Q.** What about the Tmax [2, 7] of the same molecule?
**A.** 3 h

**Q.** And the t1/2 [2, 7]?
**A.** 40.4 h

**Q.** And the Cmax [2, 8]?
**A.** 766 ng/mL

**Q.** What about the Tmax [2, 8] of the same molecule?
**A.** 3 h

**Q.** And the t1/2 [2, 8]?
**A.** 36.3 h

**Q.** And the “AUC0-t” value [3, 9]?
**A.** 2360 ng·h/mL

**Q.** What about the Cmax [3, 9] of the same molecule?
**A.** 108 ng/mL

**Q.** And the “DN AUC0-t” value [3, 9]?
**A.** 726 (ng.h/mL)/(mg/kg bw/d)

**Q.** What about the “DN AUC(0–24)” value [3, 9] of the same molecule?
**A.** 431 (ng.h/mL)/(mg/kg bw/d)

**Q.** What about the Tmax [3, 9] of the same molecule?
**A.** 3.5 h

**Q.** And the t1/2 [3, 9]?
**A.** 24.5 h

**Q.** What about the “AUC0-t” value [3, 10] of the same molecule?
**A.** 1430 ng·h/mL

**Q.** What about the Cmax [3, 10] of the same molecule?
**A.** 71.6 ng/mL

**Q.** What about the “DN AUC0-t” value [3, 10] of the same molecule?
**A.** 440 (ng.h/mL)/(mg/kg bw/d)

**Q.** And the “DN AUC(0–24)” value [3, 10]?
**A.** 323 (ng.h/mL)/(mg/kg bw/d)

**Q.** And the Tmax [3, 10]?
**A.** 5 h

**Q.** And the t1/2 [3, 10]?
**A.** 23.2 h

**Q.** And the “AUC0-t” value [3, 11]?
**A.** 31,100 ng.h/mL

**Q.** And the Cmax [3, 11]?
**A.** 632 ng/mL

**Q.** And the “DN AUC0-t” value [3, 11]?
**A.** 273 (ng.h/mL)/(mg/kg bw/d)

**Q.** And the “DN AUC(0–24)” value [3, 11]?
**A.** 87 (ng.h/mL)/(mg/kg bw/d)

**Q.** What about the Tmax [3, 11] of the same molecule?
**A.** 15.3 h

**Q.** What about the t1/2 [3, 11] of the same molecule?
**A.** 25.5 h

**Q.** What about the “AUC0-t” value [3, 12] of the same molecule?
**A.** 23,300 ng.h/mL

**Q.** What about the Cmax [3, 12] of the same molecule?
**A.** 367 ng/mL

**Q.** What about the “DN AUC0-t” value [3, 12] of the same molecule?
**A.** 204 (ng.h/mL)/(mg/kg bw/d)

**Q.** And the “DN AUC(0–24)” value [3, 12]?
**A.** 55 (ng.h/mL)/(mg/kg bw/d)

**Q.** What about the Tmax [3, 12] of the same molecule?
**A.** 20.3 h

**Q.** What about the “Behaviour in dosing vehicles” value [4] of the same molecule?
**A.** Soluble up to the highest concentration of test item employed. See also Table 2

**Q.** With `O=[N+]([O-])[O-].[Ag+]` [AgNO3, silver(I) nitrate] as the molecule, how does the “absolute bioavailability (F value)” value [1] read?
**A.** ≤ 5%

**Q.** And the AUC0-t [2, 5]?
**A.** 7690 ng·h/mL

**Q.** And the AUC0-t [2, 6]?
**A.** 5470 ng·h/mL

**Q.** What about the Cmax [2, 5] of the same molecule?
**A.** 177 ng/mL

**Q.** What about the Tmax [2, 5] of the same molecule?
**A.** 6 h

**Q.** And the t1/2 [2, 5]?
**A.** 37.5 h

**Q.** What about the Cmax [2, 6] of the same molecule?
**A.** 132 ng/mL

**Q.** And the Tmax [2, 6]?
**A.** 4.5 h

**Q.** What about the t1/2 [2, 6] of the same molecule?
**A.** 42.1 h

**Q.** What about the AUC0-t [2, 13] of the same molecule?
**A.** 54,100 ng.h/mL

**Q.** And the AUC0-t [2, 14]?
**A.** 42,800 ng.h/mL

**Q.** And the Cmax [2, 13]?
**A.** 997 ng/mL

**Q.** What about the Tmax [2, 13] of the same molecule?
**A.** 18 h

**Q.** And the t1/2 [2, 13]?
**A.** 39.8 h

**Q.** What about the Cmax [2, 14] of the same molecule?
**A.** 738 ng/mL

**Q.** And the Tmax [2, 14]?
**A.** 12 h

**Q.** And the t1/2 [2, 14]?
**A.** 42.0 h

**Q.** And the “AUC0-t” value [3, 9]?
**A.** 4610 ng·h/mL

**Q.** And the “AUC(0–24)” value [3, 9]?
**A.** 1740 ng·h/mL

**Q.** What about the Cmax [3, 9] of the same molecule?
**A.** 109 ng/mL

**Q.** What about the Tmax [3, 9] of the same molecule?
**A.** 3.25 h

**Q.** And the t1/2 [3, 9]?
**A.** 30.8 h

**Q.** And the “AUC0-t” value [3, 10]?
**A.** 1550 ng·h/mL

**Q.** And the “AUC(0–24)” value [3, 10]?
**A.** 994 ng·h/mL

**Q.** And the Cmax [3, 10]?
**A.** 62.5 ng/mL

**Q.** And the Tmax [3, 10]?
**A.** 2.5 h

**Q.** And the t1/2 [3, 10]?
**A.** 18.7 h

**Q.** And the “AUC0-t” value [3, 15]?
**A.** 18,700 ng.h/mL

**Q.** And the “AUC(0–24)” value [3, 15]?
**A.** 7670 ng·h/mL

**Q.** And the Cmax [3, 15]?
**A.** 421 ng/mL

**Q.** What about the Tmax [3, 15] of the same molecule?
**A.** 15 h

**Q.** What about the t1/2 [3, 15] of the same molecule?
**A.** 31.7 h

**Q.** What about the “AUC0-t” value [3, 16] of the same molecule?
**A.** 19,400 ng.h/mL

**Q.** What about the “AUC(0–24)” value [3, 16] of the same molecule?
**A.** 5970 ng·h/mL

**Q.** What about the Cmax [3, 16] of the same molecule?
**A.** 348 ng/mL

**Q.** And the Tmax [3, 16]?
**A.** 21 h

**Q.** And the t1/2 [3, 16]?
**A.** 37.6 h

**Q.** What about the “Behaviour in dosing vehicles” value [4] of the same molecule?
**A.** Soluble up to the highest concentration of test item employed. See also Table 2
